# Data reported in patent US11267812B2 (Mirati Therapeutics, Inc., priority 2016, dated 2022).
# Read-outs that look alike come from different tables or passages of the source.
# Legend:
# [1] = molecular target: KRas G12C (Homo sapiens, UniProt P01116, C118S/C51S/C80L/G12C); assay: KRas G12C Modification Assay (LCMS detection of covalent adduct); assay type: binding; settings: 5 μM compound, 3 hours
# Description: A 10 μL aliquot of each protein solution was then transferred to a 384 well microtiter plate. Initial compound stocks were generated at fifty times their desired final assay concentration in DMSO.
# Exemplary compounds of Formula (I) were diluted 25-fold into K-Ras Assay Buffer to a final of two times their final concentration. A 10 μL aliquot of each diluted compound solution was then added to each of the protein solutions in the microtiter plate to initiate reaction. […] At each time point, the reactions were quenched with 20 μL of a 25 mM acetic acid solution. […] Once all reactions were quenched, the plates were heat sealed and the samples were injected into a LC/MS system for data acquisition.
# Samples were injected in their liquid phase onto a C-3 reverse phase column to remove assay buffer and prepare the samples for mass spectrometer. The proteins were eluted from the column using an acetonitrile gradient and fed directly into the mass analyzer. Initial raw data analysis took place in Agilent MassHunter software immediately post data acquisition.
# Raw data analysis of the intact protein was exclusively a deconvolution of the multiple charge states of each protein in solution using a maximum entropy deconvolution provided in Mass Hunter. To minimize complexity, only the data over limited mass ranges were considered for analysis, with a minimum of one Dalton mass step intervals. The heights of all masses identified during raw data analysis were exported to be further analyzed in Spotfire® data analysis software.
# Final data analysis was a multistep process in the Spotfire® data analysis software package. Briefly, each protein mass was calculated as a percent of the total signal of that sample, that percentage was then normalized to the percentage of signal of the protein in the absence of reactive compounds. Those normalized signals were reported as normalized percent of control (POC). […] Key: “A”≤25% POC; “B”>25% POC≤50% POC; “C”>50% POC and ND=not determined.
# [2] = test system: Phospho-ERK in NCI-H358 cells expressing KRas G12C; assay: Cellular inhibition of KRas G12C by Phospho-ERK measurement in NCI-H358 cells; assay type: cell-based; settings: Homo sapiens, read-out: IC50 (pERK(Thr202/Tyr204) normalized with GAPDH)
# Summary of the method: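 After 8–12 h attachment, NCI-H358 cells were treated with compounds for 3 h (0.5% DMSO final), fixed, methanol-permeabilized and immunostained. pERK(Thr202/Tyr204) was read by infrared imaging and normalized to GAPDH as percent of DMSO control. IC50 came from a 4-parameter fit.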
# [3] = NCI-H358 cells, 3 hours compound treatment
smiles,measurement,setting,value
"C=CC(=O)N1CCN(c2nc(OC[C@@H]3CCCN3C)nc3c2CCN(c2cccc4ccccc24)C3)CC1CC#N (stereo partly drawn) [Example 147, 2-[4-[2-[[(2S)-1-methylpyrrolidin-2-yl]methoxy]-7-(1-naphthyl)-6,8-dihydro-5H-pyrido[3,4-d]pyrimidin-4-yl]-1-prop-2-enoyl-piperazin-2-yl]acetonitrile]","POC (normalized percent of control, KRas G12C modification)",[1],C (“C”>50% POC)
same,IC50,"[2]; NCI-H358, 3 h",0.001 to 1 µM
"C=CC(=O)N1CCN(c2nc(OC[C@]3(C)CCCN3C)nc3c2CCN(c2cccc4ccccc24)C3)CC1CC#N (stereo partly drawn) [Example 251, 2-(1-acryloyl-4-(2-(((S)-1,2-dimethylpyrrolidin-2-yl)methoxy)-7-(naphthalen-1-yl)-5,6,7,8-tetrahydropyrido[3,4-d]pyrimidin-4-yl)piperazin-2-yl)acetonitrile]","POC (normalized percent of control, KRas G12C modification)",[1],C (“C”>50% POC)
same,IC50,[2]; [3],0.001 to 1 µM
"C=CC(=O)N1CCN(c2nc(OC[C@H]3CCCN3C)nc3c2CCN(c2cccc4ccccc24)C3)CC1CC#N (stereo partly drawn) [Example 183, 2-[4-[2-[[(2R)-1-methylpyrrolidin-2-yl]methoxy]-7-(1-naphthyl)-6,8-dihydro-5H-pyrido[3,4-d]pyrimidin-4-yl]-1-prop-2-enoyl-piperazin-2-yl]acetonitrile]","POC (normalized percent of control, KRas G12C modification)",[1],C (“C”>50% POC)
same,IC50,"[2]; NCI-H358, 3 h",0.001 to 1 µM
"C=CC(=O)N1CCN(c2nc(OC[C@@H]3CCCN3C)nc3c2CCN(c2cccc4ccncc24)C3)CC1CC#N (stereo partly drawn) [Example 244, 2-[4-[7-(8-isoquinolyl)-2-[[(2S)-1-methylpyrrolidin-2-yl]methoxy]-6,8-dihydro-5H-pyrido[3,4-d]pyrimidin-4-yl]-1-prop-2-enoyl-piperazin-2-yl]acetonitrile]","POC (normalized percent of control, KRas G12C modification)",[1],C (“C”>50% POC)
same,IC50,[2]; [3],0.001 to 1 µM
"C=CC(=O)N1CCN(c2nc(OCCCN3C[C@H]4C[C@@H]3CO4)nc3c2CCN(c2cc(O)cc4ccccc24)C3)CC1 [Example 185, 1-(4-(2-(3-((1R,4R)-2-oxa-5-azabicyclo[2.2.1]heptan-5-yl)propoxy)-7-(3-hydroxynaphthalen-1-yl)-5,6,7,8-tetrahydropyrido[3,4-d]pyrimidin-4-yl)piperazin-1-yl)prop-2-en-1-one]","POC (normalized percent of control, KRas G12C modification)",[1],C (“C”>50% POC)
same,IC50,[2]; [3],0.001 to 1 µM
"C=CC(=O)N1CCN(c2nc(OC[C@@H]3CCCN3C)nc3c2CCN(c2c(C)c(O)cc4ccccc24)C3)CC1 [Example 175, (S)-1-(4-(7-(3-hydroxy-2-methylnaphthalen-1-yl)-2-((1-methylpyrrolidin-2-yl)methoxy)-5,6,7,8-tetrahydropyrido[3,4-d]pyrimidin-4-yl)piperazin-1-yl)prop-2-en-1-one]","POC (normalized percent of control, KRas G12C modification)",[1],C (“C”>50% POC)
same,IC50,[2]; [3],0.001 to 1 µM
"C=CC(=O)N1CCN(c2nc(OC[C@@H]3CCCN3C)nc3c2CCN(c2cc(O)cc4ccccc24)C3)CC1CC#N (stereo partly drawn) [Example 182, 2-[4-[7-(3-hydroxy-1-naphthyl)-2-[[(2S)-1-methylpyrrolidin-2-yl]methoxy]-6,8-dihydro-5H-pyrido[3,4-d]pyrimidin-4-yl]-1-prop-2-enoyl-piperazin-2-yl]acetonitrile]","POC (normalized percent of control, KRas G12C modification)",[1],C (“C”>50% POC)
same,IC50,[2]; [3],0.001 to 1 µM
"C=CC(=O)N1CCN(c2nc(OC[C@@H]3CCCN3C)nc3c2CCN(c2cccc4ccccc24)C3)C[C@@H]1CC#N [Example 234, 2-((S)-1-acryloyl-4-(2-(((S)-1-methylpyrrolidin-2-yl)methoxy)-7-(naphthalen-1-yl)-5,6,7,8-tetrahydropyrido[3,4-d]pyrimidin-4-yl)piperazin-2-yl)acetonitrile]","POC (normalized percent of control, KRas G12C modification)",[1],C (“C”>50% POC)
same,IC50,"[2]; NCI-H358, 3 h",0.001 to 1 µM
"C=CC(=O)N1CCN(c2nc(OC[C@@H]3C[C@@H](F)CN3C)nc3c2CCN(c2cccc4ccccc24)C3)CC1CC#N (stereo partly drawn) [Example 220, 2-(1-acryloyl-4-(2-(((2S,4R)-4-fluoro-1-methylpyrrolidin-2-yl)methoxy)-7-(naphthalen-1-yl)-5,6,7,8-tetrahydropyrido[3,4-d]pyrimidin-4-yl)piperazin-2-yl)acetonitrile]","POC (normalized percent of control, KRas G12C modification)",[1],C (“C”>50% POC)
same,IC50,[2]; [3],0.001 to 1 µM
"C=CC(=O)N1CCN(c2nc(OCCCN3CCOCC3)nc3c2CCN(c2c(C(F)(F)F)ccc4[nH]ncc24)C3)CC1 [Example 180, 1-[4-[2-(3-morpholinopropoxy)-7-[5-(trifluoromethyl)-1H-indazol-4-yl]-6,8-dihydro-5H-pyrido[3,4-d]pyrimidin-4-yl]piperazin-1-yl]prop-2-en-1-one]","POC (normalized percent of control, KRas G12C modification)",[1],C (“C”>50% POC)
same,IC50,[2]; [3],0.001 to 1 µM
